# In patent publication US20240108634A1, “COMPOSITIONS AND METHODS FOR INHIBITING YAP” (The United States Government as represented by the …, priority 2021, published 2024):
# Legend:
# [1] = target: T1, YAP1 (residues 50-171) / TEAD1 (residues 194-411) association (Homo sapiens, UniProt P46937); assay: In vitro GST pull-down of His-tagged YAP1 with GST-TEAD1; format: binding; details: concentration-dependent
# T1 construct: His; made in house
# Description: FIGS. 1A-G show the identification of a YAP1-TEAD1 binding interface inhibitor. […] The Gal4 DBD was fused to residues 50-171 of human YAP1 and the Gal4 AD was fused to residues 194-411 of human TEAD1. These fusions were expressed in yeast containing reporters harboring Gal4 upstream activating sequences (UAS). […] Yeast expressing either p53-DBD and SV40 large T antigen-AD fusions or YAP1-DBD and TEAD1-AD fusions were plated on selective media. Compounds were pinned onto the plate surfaces by robotic transfer and subsequently examined for halo formation (indicated by red circles). […] Pull-down products were analyzed by SDS-PAGE and silver staining. […] Raw binding sensorgrams obtained at each concentration were fitted to a 1:1 binding model and Kon, Koff and KD were calculated by simultaneous non-linear regression analyses.
# Results. […] To examine the mechanism by which NSC682769 inhibits YAP, the ability of full-length human YAP1 to bind to NSC682769 cross-linked affinity beads prepared using a photo-cross-linking procedure (Holmes B, et al. (2016) J Biol Chem 291: 14146-14159) was determined. Recombinant YAP was incubated with control, IRES-J007 (negative control), or NSC682769-coupled beads and binding analyzed by immunoblotting for YAP (FIG. 1F). […]
# [2] = test system: LN229 and GBM39 cells; assay: Boyden chamber migration towards vitronectin or fibronectin; format: cell-based, human; details: vitronectin or fibronectin versus BSA-coated chambers
# From the text: Cells were layered in soft agar to evaluate anchorage-independent growth in the presence of the indicated concentrations of inhibitor and colonies counted following 14 days of growth. Representative crystal violet stained images are shown below. Data represent mean+S.D. of three independent experiments. […] Cells were placed in Boyden chambers and allowed to migrate towards BSA (white bars), vitronectin (light yellow bars), or fibronectin (dark yellow bars) (*, P<0.05; n=3). […] Representative crystal violet stained images are shown (200×). Data represent mean+S.D. of three independent experiments. […] Graphical data shown below represent mean+S.D. (late apoptosis; annexin V-positive, PI-positive) of three independent experiments.
# Cell proliferation, clonogenic, migration, invasion and apoptosis assays. Cell proliferation was determined via Cell Titer-Glo® luminescent cell assays (Promega). Clonogenic assays were done by plating a total of 1,000 cells per well in 24-well plates in a total volume of 400 μL using a two-layered soft agar system as previously described (Masri J, et al. (2007) Cancer Res 67: 11712-11720). Cell migration assays were conducted using precoated modified Boyden chambers as previously described (Benavides-Serrato A, et al. (2017) PLoS One 12: e0176599). […]
# T1 sequence (P46937 50-171): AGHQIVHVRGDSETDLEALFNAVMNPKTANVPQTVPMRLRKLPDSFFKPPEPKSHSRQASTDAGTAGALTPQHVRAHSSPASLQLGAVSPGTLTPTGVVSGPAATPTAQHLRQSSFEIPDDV
structure (smiles),measurement,setting,value
COc1ccc(-c2cc(-c3ccccc3)nc3c2CC(=O)Nc2ccccc2-3)cc1OC [NSC682769],Inhibition of His-tagged YAP1 and GST-TEAD1 association,[1],marked inhibition
same,Cell migration,[2],inhibited the number of cells capable of migrating
